From patent US11149046B2, “Antibacterial sideromycins” (Hsiri Therapeutics, Inc., priority 2014, dated 2021)
In brackets after ≈: the same amount, converted by molar mass. Read-outs that look alike come from different tables or passages of the source.

What was measured:
[1] = tested on: P. aeruginosa KW799/wt; assay: MIC determination; format: cell-based, Pseudomonas aeruginosa; conditions: Pseudomonas aeruginosa, KW799/WT, read-out: MIC
From the text: (§1) Table 3 that was included in the first Example 4 section provides antibacterial data for the first synthetic sideromycins we prepared and studied. The second Example 4 section elaborated and expanded on that data with inclusion of representative antibacterial data in the text and associated pictures of Petri dish assays. MIC (minimum inhibition concentration) is given in μM and AD (agar diffusion zones of inhibition are given in mm from Kirby-Bauer Petri dish growth inhibition studies).

[2] = tested on: Pa4; assay: MIC determination; format: cell-based, Pseudomonas aeruginosa; conditions: Pseudomonas aeruginosa
From the text: as §1

[3] = tested on: P. aeruginosa KW799/61 (permeability mutant); assay: microbe, parasite or virus in culture; format: cell-based, Pseudomonas aeruginosa; conditions: Pseudomonas aeruginosa
From the text: (§2) MIC (minimum inhibition concentration) is given in μM and AD (agar diffusion zones of inhibition are given in mm from Kirby-Bauer Petri dish growth inhibition studies).

[4] = tested on: Pa6; assay: MIC determination; format: cell-based, Pseudomonas aeruginosa; conditions: Pseudomonas aeruginosa
From the text: as §2

[5] = tested on: Pa-Da-1304 CF patient isolate; assay: MIC determination; format: cell-based, Pseudomonas aeruginosa; conditions: for MIC: Pseudomonas aeruginosa
From the text: as §2
We obtained a clinical isolate of Pseudomonas from a cystic fibrosis patient.

[6] = tested on: A. baumannii ATCC 17961; assay: MIC determination; format: cell-based, Acinetobacter baumannii; conditions: read-out: MIC
From the text: as §1

[7] = tested on: Pseudomonas aeruginosa 01 (Pa01); assay: MIC determination; format: cell-based; conditions: Pseudomonas aeruginosa, read-out: MIC
From the text: as §1

[8] = tested on: Pseudomonas aeruginosa KW799/wt; assay: Agar diffusion (Kirby-Bauer) assay; format: cell-based; conditions: wild type Pseudomonas; FIG. 8, 9, 12
From the text: as §1

[9] = Acinetobacter baumannii, ATCC17961, Table 7

`CC(=O)Oc1cccc(C(=O)NCCCCN(CC(=O)N[C@@H](C(=O)N[C@@H]2C(=O)N3C2SC(C)(C)[C@@H]3C(=O)O)c2ccccc2)C(=O)c2cccc(O)c2O)c1OC(C)=O` (some centres unmarked) [YML-I-62] was tested, and the MIC ([1]; Table 5) was 0.0156 µM (≈ 0.013 µg/mL), the MIC ([2]; Table 5) was 0.0156 µM (≈ 0.013 µg/mL) and the MIC [3] was 0.0078 µM (≈ 0.0065 µg/mL). For the same compound, the MIC ([4]; beta-lactamase producer strain, read-out: MIC) was > 100 µM, the MIC ([4]; in the presence of potassium clavulanate, read-out: MIC with added beta-lactamase inhibitor) was 0.0625 µM and the MIC ([5]; Table 5) was 0.78 µM (≈ 0.65 µg/mL). The MIC ([5]; clinical isolate from a cystic fibrosis patient) was 0.4 to 0.75 µM (≈ 0.334 to 0.625 µg/mL), the MIC ([6]; Acinetobacter baumannii, ATCC17961, Table 5, head prints A. baumannii only) was 0.25 µM (≈ 0.208 µg/mL) and the MIC [6, 9] was 0.25 µM (≈ 0.208 µg/mL). The MIC ([7]; Table 5) was 0.0156 µM (≈ 0.013 µg/mL) and the “zones of inhibition (in words)” value [8] was “potently active”.
With `CC1(C)S[C@@H]2[C@H](NC(=O)[C@H](N)c3ccc(O)cc3)C(=O)N2[C@H]1C(=O)O` [amoxicillin, reference compound] the “susceptibility of the clinical isolate (in words)” value ([5]; preliminary tests) was “resistant”.
`CC(=O)Oc1cccc(C(=O)NCCCCN(CCCNC(=O)c2cccc(OC(C)=O)c2OC(C)=O)C(=O)CCC(=O)N[C@@H](CCCN(O)C(C)=O)C(=O)N[C@@H](C(=O)N[C@@H]2C(=O)N3C2SC(C)(C)[C@@H]3C(=O)O)c2ccccc2)c1OC(C)=O` (some centres unmarked) [MG-1-186] was tested, and the MIC ([4]; Table 6, read-out: MIC) was > 50 µM.
`N[C@@H](C(=O)N[C@@H]1C(=O)N2C(C(=O)O)=C(Cl)CS[C@H]12)c1ccccc1` [cefaclor, reference compound] was tested, and the MIC ([1]; Table 7) was > 50 µM, the MIC [6, 9] was > 50 µM and the MIC ([7]; Table 7) was > 50 µM.
In the case of `CC(=O)Oc1cccc(C(=O)NCCCCN(CCCNC(=O)c2cccc(OC(C)=O)c2OC(C)=O)C(=O)CCC(=O)N[C@@H](CCCN(O)C(C)=O)C(=O)N[C@@H](C(=O)N[C@@H]2C(=O)N3C(C(=O)O)=C(Cl)CCC23)c2ccccc2)c1OC(C)=O` (some centres unmarked) [MG-1-185], the MIC ([1]; Table 6) is reported as 1.56 µM (≈ 1.86 µg/mL), the MIC ([2]; Table 6) is reported as > 50 µM and the MIC ([4]; Table 6, read-out: MIC) is reported as > 50 µM. For the same compound, the MIC ([5]; Table 6) was > 50 µM, the MIC ([6]; Acinetobacter baumannii, ATCC17961, Table 6, head prints A. baumannii only) was 0.2 µM (≈ 0.238 µg/mL) and the MIC ([7]; Table 6) was > 50 µM.
Compound `O=C(CCC(=O)N(CCCCNC(=O)c1cccc(O)c1O)CCCNC(=O)c1cccc(O)c1O)NCCCCCN(O)C(=O)CCCC(=O)NC(C(=O)NC1C(=O)N2C(C(=O)O)=C(Cl)CSC12)c1ccccc1` (centres unmarked) [MG-1-285] has an MIC [6] of 0.025 µM (≈ 0.027 µg/mL).
